“Also recorded” adds a separate entry of the source. Read-outs that look alike come from different tables or passages of the source.
Tests used:
CEM cells [1] = experiment: Phosphatidylserine externalization, Annexin V-FITC/PI assay; assay type: cell-based, human
Protocol: FIG. 1. […] CEM cells were treated at the CC50 and twice (2×) that concentration of SSK-3. Note that PS externalization is an early marker of apoptosis. * Indicates P value less than 0.001.
SSK-3 induces significant phosphatidylserine externalization. To corrobotate whether SSK-3 utilizes apoptosis to induce cell death, we measured phosphatidylserine (PS) externalization in SSK-3-treated CEM cells by using the Annexin V-FITC/PI assay (3, 4).

[2] = DNS cytotoxicity assay, MCF10A; assay type: cell-based; details: human, MCF10A non-cancerous cells, 72 hr incubations, read-out: Cell Line CC50 MCF10A*
Protocol: (§1) Since the non-adherent (free floating) lymphoma/leukemia cell lines divide faster than the adherent cell lines, they were incubated for a shorter period (48 h) of time with the compound.

MDA-MB231 = experiment: DNS cytotoxicity assay, MDA-MB-231; assay type: cell-based; details: Homo sapiens
Protocol: as §1
(§2) Lymphoma/leukemia cell lines, which grow in suspension, were incubated for 48 h with the compounds. […] After treatment, images were acquired and analyzed to determine percentages of live/dead cells and their cytotoxicity. […] The Hs-27 non-cancerous human foreskin fibroblast cell line was used for comparison purposes.

[3] = DNS cytotoxicity assay, HS-27 non-cancerous fibroblast; assay type: cell-based; details: human, Hs-27 non-cancerous foreskin fibroblast cells
Protocol: as §1, §2

Jurkat = experiment: DNS cytotoxicity assay, Jurkat; assay type: cell-based, human; details: for CC50: Homo sapiens, Jurkat, Lymphoma-Leukemia, 48 hrs
Description: (§3) Using the high throughput Differential Nuclear Staining (DNS) screening assay (Lema et al., Current Cellular Biochemistry 1, 1-14, 2011) 15 pyrazole compounds were synthesized and screened on the human T-cell Acute Lymphoblastic Leukemia CEM cell line (Tables 1 and 2). […] The compounds were synthesized based on a pyrazole backbone structure previously determined to have potent cytotoxic activity (FIG. 5). Several commercial and non-commercial analogues (see Table 3) have been tested and determined that the ones with highest activity have a similar structure circled in FIG. 5. […] SSK-3 has been tested on a few cancer cell lines (see Table 4) and also found to induce programmed cell death via a variety of biochemical assays. […] Since the non-adherent (free floating) lymphoma/leukemia cell lines divide faster than the adherent cell lines, they were incubated for a shorter period (48 h) of time with the compound.
SSK-3 has potent cytotoxic activity against a panel of human cancer cell lines. The cytotoxic activity of SSK-3 was examined by the DNS assay (Lema et al., Current Cellular Biochemistry 1, 1-14, 2011). Lymphoma/leukemia cell lines, which grow in suspension, were incubated for 48 h with the compounds. Since the adherent cells generally divide at a slower rate than the non-adherent cell lines, the MDA-MB231, HCC1419, T47D, COLO205, PANC-1, A-549 adherent cancer cells lines were incubated for 72 h in the presence of the compounds. After treatment, images were acquired and analyzed to determine percentages of live/dead cells and their cytotoxicity. […] The Hs-27 non-cancerous human foreskin fibroblast cell line was used for comparison purposes.

CEM cell line = experiment: DNS cytotoxicity assay, CEM; assay type: cell-based, human
Description: […] […] After treatment, images were acquired and analyzed to determine percentages of live/dead cells and their cytotoxicity. […] The Hs-27 non-cancerous human foreskin fibroblast cell line was used for comparison purposes.

JVM-2 = experiment: DNS cytotoxicity assay, JVM-2; assay type: cell-based; details: Homo sapiens, Mantle cell Lymphoma, 48 or 72 hrs
Description: as §3
(§4) SSK-3 has potent cytotoxic activity against a panel of human cancer cell lines. The cytotoxic activity of SSK-3 was examined by the DNS assay (Lema et al., Current Cellular Biochemistry 1, 1-14, 2011). Lymphoma/leukemia cell lines, which grow in suspension, were incubated for 48 h with the compounds. […] After treatment, images were acquired and analyzed to determine percentages of live/dead cells and their cytotoxicity. […]

cell cycle = experiment: Cell cycle arrest; assay type: cell-based; details: data not shown
caspase-3 in CEM cells = experiment: Caspase-3 activation, NucView substrate, flow cytometry; assay type: cell-based, human; details: 7 h, P<0.05 vs DMSO control
Protocol: (§5) FIG. 2A-2C. […] CEM cells were treated at the CC50 and twice (2×) that concentration of SSK-3.
(§6) SSK-3 induces caspase-3 activation. Mitochondrial depolarization is one of the salient features of cell-death induction and this was observed after treatment of CEM cells with SSK-3 (FIG. 2A). […] CEM cells were treated with SSK-3 for 7 h and subsequently stained with the NucView caspase-3 substrate and analyzed via flow cytometry (Gutierrez et al., Cell biology and toxicology 35, 503-19, 2019) (FIG. 2B).

CEM cells [4] = experiment: Generation of Reactive Oxygen Species; assay type: cell-based, human; details: CC50 and 2×CC50
CEM cells [5] = experiment: Mode of cell death: intrinsic apoptosis pathway; assay type: cell-based, human
Protocol: as §5
These compounds were tested in mice at a concentration of 160 mg/kg and after 3-4 daily doses, animals tolerated the treatments well. Different cytotoxicity patterns of the compounds against distinct cell lines has been noted, and it is therefore possible that distinct pyrazoles will act on distinct cellular effectors with different modes of action. However, all of the pyrazole compounds so far tested including SSK-3 induce cell death via the intrinsic apoptosis pathway as will be described below.

MDA-468 = experiment: DNS cytotoxicity assay, MDA-468; assay type: cell-based; details: Homo sapiens; Breat Cancer; 72 hrs
Description: as §3, §4

Z138 = experiment: DNS cytotoxicity assay, Z138; assay type: cell-based; details: Homo sapiens, Z-138; Mantle cell Lymphoma; 48 or 72 hrs
Description: as §3, §4

RPMI-8226 = experiment: DNS cytotoxicity assay, RPMI-8226; assay type: cell-based; details: Homo sapiens, Multiple Myeloma, 48 or 72 hrs
Description: as §3, §4

HCC1419 = experiment: DNS cytotoxicity assay, HCC1419; assay type: cell-based; details: Homo sapiens, Breat Cancer, 72 hrs
Description: as §3, §4

MM.1S = experiment: DNS cytotoxicity assay, MM.1S; assay type: cell-based; details: Homo sapiens, MM1.S; Multiple Myeloma; 48 or 72 hrs
Description: as §3, §4

JVM-13 = experiment: DNS cytotoxicity assay, JVM-13; assay type: cell-based; details: Homo sapiens, JVM13; Mantle cell Lymphoma; 48 or 72 hrs
Description: as §3, §4

T47D = experiment: DNS cytotoxicity assay, T47D; assay type: cell-based; details: Homo sapiens, Breat Cancer, 72 hrs
Description: as §3, §4

Tubulin = Tubulin polymerization, biochemical assays
CEM cells [6] = experiment: Mitochondrial depolarization; assay type: cell-based, human; details: CC50 and 2×CC50
Protocol: as §5, §6

MiNO = experiment: DNS cytotoxicity assay, MiNO; assay type: cell-based; details: Homo sapiens, Mantle cell Lymphoma, 48 or 72 hrs
Description: as §3, §4

[7] = tested on: membrane microtubule organization; experiment: Membrane microtubule organization; assay type: cell-based; details: 2 hours; vs DMSO control
NALM-6 = experiment: DNS cytotoxicity assay, NALM-6; assay type: cell-based; details: Homo sapiens, Lymphoma-Leukemia, 48 hrs
Description: as §3, §4

HL-60 = experiment: DNS cytotoxicity assay, HL-60; assay type: cell-based; details: Homo sapiens, Lymphoma-Leukemia, 48 hrs
Description: as §3, §4

PANC-1 = experiment: DNS cytotoxicity assay, PANC-1; assay type: cell-based; details: Homo sapiens, Pancreatic cancer, 72 hrs
Description: as §3, §4

Colo 205 = experiment: DNS cytotoxicity assay, Colo 205; assay type: cell-based; details: Homo sapiens, Colon Cancer, 72 hrs
Description: as §3, §4

MM.1R = experiment: DNS cytotoxicity assay, MM.1R; assay type: cell-based; details: Homo sapiens, Multiple Myeloma, 48 or 72 hrs
Description: as §3, §4

U226 = experiment: DNS cytotoxicity assay, U226; assay type: cell-based; details: Homo sapiens, Multiple Myeloma, 48 or 72 hrs
Description: as §3, §4

Jeko-1 = experiment: DNS cytotoxicity assay, Jeko-1; assay type: cell-based; details: Homo sapiens, Mantle cell Lymphoma, 48 or 72 hrs
Description: as §3, §4

HL-60 leukemia cell line = experiment: Apoptosis induction in HL-60; assay type: cell-based
K562 = experiment: DNS cytotoxicity assay, K562; assay type: cell-based; details: Homo sapiens, Lymphoma-Leukemia, 48 hrs
Description: as §3, §4

RAMOS = experiment: DNS cytotoxicity assay, RAMOS; assay type: cell-based; details: Homo sapiens, Lymphoma-Leukemia, 48 hrs
Description: as §3, §4

[8] = 72 hr incubations, read-out: Cell Line CC50 MDA-MD-231*
[9] = 72 hr incubations, non-cancerous, read-out: Cell Line CC50 HS-27*
[10] = Homo sapiens, CCRF-CEM, Initial Screen, DNS assay, read-out: CEM CC50

For `OO` [H2O2, reference compound], the “percentage of PS externalization” value (CEM cells [1]; positive control for death) was about 78%.

Work on `O=C(N/N=C/c1ccc(Br)cc1)c1n[nH]c2c1CCC2` [P3C.1] yielded a CC50 at 72 h [2] of 420 nM, a CC50 (MDA-MB231; [8]) of 97 nM and a CC50 at 72 h [3, 9] of 780 nM. The CC50 (Jurkat) was 390 nM.

With `O=C(N/N=C/c1cccc2ccccc12)c1n[nH]c2c1CCC2` [P3C.2] the CC50 at 72 h [2] was 530 nM, the CC50 (MDA-MB231; [8]) was 1830 nM and the CC50 at 72 h [3, 9] was 4100 nM.

With `O=C(N/N=C/c1c(O)ccc2ccccc12)c1n[nH]c2c1CCCC2` [P3C.3] the CC50 at 72 h [2] was 2160 nM, the CC50 (MDA-MB231; [8]) was 1610 nM and the CC50 at 72 h [3, 9] was over 10000 nM.

With `CCN(CC)c1ccc(/C=N/NC(=O)c2n[nH]c3c2CCC3)cc1` [P3C.4] the CC50 at 72 h [2] was 2460 nM, the CC50 (MDA-MB231; [8]) was 2910 nM and the CC50 at 72 h [3, 9] was over 10000 nM.

Compound `O=C(N/N=C/c1ccccc1Br)c1n[nH]c2c1CCC2` [P3C.5] has a CC50 at 72 h [2] of 6360 nM, a CC50 (MDA-MB231; [8]) of 9880 nM and a CC50 at 72 h [3, 9] of over 10000 nM.

For `O=C(N/N=C/c1cc(Br)cc(Br)c1O)c1n[nH]c2c1CCC2` [P3C.6], the CC50 at 72 h [2] was 5850 nM, the CC50 (MDA-MB231; [8]) was 2530 nM and the CC50 at 72 h [3, 9] was 9940 nM.

`COc1ccc(/C=N/NC(=O)c2n[nH]c3c2CCC3)cc1O` [P3C.10] showed a CC50 at 72 h [2] of 2460 nM, a CC50 (MDA-MB231; [8]) of 2910 nM and a CC50 at 72 h [3, 9] of over 10000 nM.

`O=C1Nc2ccccc2/C1=N/NC(=O)c1n[nH]c2c1CCC2` [SSK-1] gave a CC50 (CEM cell line; [10]) of 12100 ± 1110 nM.

`O=C1Nc2ccc(F)cc2/C1=N/NC(=O)c1n[nH]c2c1CCC2` [SSK-2] gave a CC50 (CEM cell line; [10]) of over 10000 nM.

For `Cc1ccc2c(c1)/C(=N/NC(=O)c1n[nH]c3c1CCC3)C(=O)N2` [SSK-3, N-(5-methyl-2-oxoindolin-3ylidene)-1,4,5,6-tetrahydrocyclopenta[c]pyrazole-3-carbohydrazide], the CC50 (JVM-2) was 790 nM, the cell cycle arrest (cell cycle) was “cause cell cycle arrest and interfere with cellular replication” and the caspase-3 activation (caspase-3 in CEM cells) was “induced a statistically significant activation of caspase-3; also recorded: Activation of Caspase 3 was detected”. The “Generation of Reactive Oxygen Species (ROS)” value (CEM cells [4]) was “led to the generation of Reactive Oxygen Species (ROS)”, the “induction of the intrinsic apoptosis pathway” value (CEM cells [5]) was “induces the intrinsic apoptosis pathway” and the CC50 (MDA-468) was 3980 nM. It also gave a CC50 (Z138) of 3360 nM, a CC50 (RPMI-8226) of 2470 nM and a CC50 (HCC1419) of over 20000 nM. For the same compound, the CC50 (MM.1S) was 4610 nM, the CC50 (JVM-13) was 790 nM and the CC50 (T47D) was 3870 nM. The Tubulin polymerization inhibition (Tubulin) was “inhibiting tubulin polymerization”, the Mitochondrial depolarization (CEM cells [6]) was “Mitochondrial depolarization was observed” and the CC50 (MiNO) was 1070 nM. For the same compound, the “disruption of membrane microtubule organization” value [7] was “severe disruption of membrane microtubule organization”, the “PS externalization” value (CEM cells [1]; CC50 and 2×CC50 (0.24 and 0.48 μM printed), vs solvent control) was “induces significant PS externalization in a dose-response manner; also recorded: Induction of Phosphatidylserine (PS) externalization” and the CC50 (NALM-6) was 2040 nM. It also gave a CC50 (MDA-MB231; Table 4, Breat Cancer, 72 hrs, read-out: CC50 MDA-MB231) of 2300 nM, a CC50 (HL-60) of 750 nM and a CC50 (PANC-1) of 1860 nM. It also gave a CC50 (Colo 205) of 2430 nM, a CC50 (MM.1R) of 3880 nM and a CC50 (U226) of 4440 nM. For the same compound, the CC50 (Jeko-1) was 1240 nM, the CC50 at 72 h ([3]; Table 4, Normal Fibroblast, 72 hrs, read-out: CC50 HS27) was 15400 nM and the CC50 (CEM cell line; Homo sapiens, CCRF-CEM, 48 h, Table 4, Lymphoma-Leukemia, 48 hrs, read-out: CC50 CEM) was 1400 nM. For the same compound, the CC50 (CEM cell line; Initial Screen, DNS assay, read-out: CEM CC50) was 1390 ± 680 nM, the induction of apoptosis (HL-60 leukemia cell line) was “induced apoptosis via mitochondrial depolarization and phosphatidylserine membrane exposure” and the CC50 (K562) was 2130 nM. For the same compound, the CC50 (RAMOS) was 1650 nM, the “times more cytotoxic toward Jurkat than HS27” value (Jurkat; CC50 HS27 / CC50 Jurkat) was 37 times and the CC50 (Jurkat) was 420 nM.

Reference: patent US20230115335A1, “PYRAZOLE DERIVATIVES WITH ANTICANCER ACTIVITY” (BOARD OF REGENTS, THE UNIVERSITY OF TEXAS SYSTEM, priority 2021, published 2023)
